Source: patent EP0571511B1, “NOVEL UREAS AND THIOUREAS, PREPARATION THEREOF AND APPLICATION IN THERAPY” (priority 1991, dated 1992)

Molecular target: acétylcholinestérase (Homo sapiens, UniProt P22303)
Assay: biochemical
Settings: Inhibition de l'activité de l'acétylcholinestérase; read-out: IC₅₀
Excerpt: Les composés de l'invention ont été soumis à des essais pharmacologiques qui ont montré leur intérét en tant qu'inhibiteurs de l'acétylcholinestérase.

acétylcholinestérase, sequence (P22303 32-614, species assumed): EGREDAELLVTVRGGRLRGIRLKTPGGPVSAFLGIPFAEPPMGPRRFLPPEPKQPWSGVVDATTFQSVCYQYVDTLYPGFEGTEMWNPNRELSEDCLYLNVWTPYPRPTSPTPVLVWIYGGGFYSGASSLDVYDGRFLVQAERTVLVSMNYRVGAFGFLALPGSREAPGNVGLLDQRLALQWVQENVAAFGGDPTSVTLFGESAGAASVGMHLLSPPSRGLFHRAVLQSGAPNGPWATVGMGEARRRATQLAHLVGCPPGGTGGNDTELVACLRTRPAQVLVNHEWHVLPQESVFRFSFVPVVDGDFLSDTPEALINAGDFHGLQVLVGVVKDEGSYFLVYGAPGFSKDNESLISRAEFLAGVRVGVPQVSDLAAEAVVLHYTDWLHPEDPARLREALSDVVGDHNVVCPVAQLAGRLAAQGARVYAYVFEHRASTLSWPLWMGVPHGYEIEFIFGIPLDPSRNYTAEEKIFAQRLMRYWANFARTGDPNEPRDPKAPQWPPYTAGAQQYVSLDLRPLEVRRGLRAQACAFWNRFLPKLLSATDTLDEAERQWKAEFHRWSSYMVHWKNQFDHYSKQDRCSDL

O=C(NC(=S)NCCC1CCN(Cc2ccccc2)CC1)c1ccc2c(c1)OCO2 [compound 12] showed an IC50 of 18 nM.
